Measurements reported in patent publication US20150175585A1, “FUSED QUINONIC COMPOUNDS” (CENTRO ATLANTICO DEL MEDICAMENTO S.A (CEAMED, S.A.), priority 2012, published 2015).
Read-outs that look alike come from different tables or passages of the source.

Experiments:
[1] = test system: STAT5 transcription (pSPI-GLE1-luc) in HEK-GHR cells; assay: HEK-GHR STAT5 transcription assay (luciferase reporter, rhGH stimulated); type: cell-based, human; details: compound 45 minutes before 50 nM rhGH, six hours, read-out: Activity (IC50, reduction of luciferase activity)
Source text: Plasmids: The full-length GHR was subcloned into pcDNA1/ampicillin (Invitrogen) as described previously (Ross R J, Esposito N, Shen X Y, et al., Mol Endocrinol 1997, 11:265-73). The pSPI-GLE1 (serine protease inhibitor 2.1 GAS-like element 1)-luc reporter construct was generated by subcloning the Stat5-binding element from serine protease inhibitor gene together with a minimal thymidine kinase promoter into the pGL2 plasmid (Promega), which contains the firefly luciferase cDNA (Wood T J, Sliva D, Lobie P E, et al. J Biol Chem 1995, 270:9448-53).
Cell culture: HEK-GHR cell line was maintained in Dulbecco's Modified Eagle Medium (DMEM)/F12 supplemented with 10% fetal bovine serum (FBS) and 50 U/ml penicillin/50 U/ml streptomycin. The cells were maintained in a humidified incubator with 5% CO2 at 37° C. Cell culture reagents were obtained from PAA laboratories. The HEK-GHR cell line is a stable clone generated and kindly donated by Prof. Richard Ross (Clinical Sciences, Northern General Hospital, Sheffield, UK). Briefly, HEK-GHR cell line was generated in HEK 293 cells (human kidney embryonal cell line) by transfection with the calcium phosphate procedure of the GHR plasmid with pcDNA3/Neo (Invitrogen). Selection was made using G418 (400 ug/ml, Sigma) (Maamra M, Finidori J, Von Laue S, et al., J Biol Chem 1999, 274(21):14791-8).
Luciferase reporter assay: Transcription assays were performed in HEK-GHR. The HEK-GHR cells were co-transfected with Stat5 luciferase (pSPI-GLE1-luc) reporter vector together with a plasmid constitutively expressing beta-galactosidase by using Metafectene Pro as described by the manufacturer (Biontex Laboratories GmbH, Munich, Germany). Following transfection, HEK-GHR cells were serum-starved for 20 h. Cells were then treated with vehicle (0.1% DMSO) or the indicated compound for 45 minutes prior to the addition of 50 nM recombinant human Growth Hormone (rhGH) (Norditropin, Novo Nordisk) to the medium. Six hours following rhGH addition, cells were harvested with Passive Lysis Buffer (Promega), and levels of luciferase were measured using Luciferase Assay System as described by the manufacturer (Promega). The Galacto-Light Plus System (Applied Biosystems) was used to measure beta-galactosidase activity.
Statistical analysis. The concentration of drug that provokes 50% reduction of luciferase activity (IC50) was determined by using non-linear regression analysis and data were fitted to a log concentration vs normalized response curve in GraphPad software v5 (San Diego, Calif.).

[2] = test system: K562 cells; assay: K562-based MTT cell viability assay; design: species or system human; details: 48 h, read-out: Activity (IC50, reduction of cell viability)
Protocol: (§1) Cell viability was assayed by measuring the mitochondrial reduction of the tetrazolium salt 3-(4,5-methyltiazol-2yl)-2,5diphenyl-tetrazolium bromide] (MTT) (Applichen; A2231,0010) (Mosmann T. J Immunol Methods. 1983 16; 65(1-2):55-63; Chuan Y-C et al 2010. Oncogene. 29 (10), 1531-1542. Cells were seeded in 96-well plates in medium supplemented with 10% FBS (Lonza Cat. No: 14-502F), 2 mM L-Glut (Lonza Cat. No: BE17-605E) and 100 U/ml PEST (Lonza Cat. No: DE17-605E) at a cell density of 5000-20000 cells/well. Cells were seeded at a density according to their exponential growth phase. Vehicle (0.05% DMSO) or drug were added to culture medium at the indicated concentrations (10 to 0.01 microM) during 48 h. Then, MTT (0.3 mg/ml) was added to cells following by incubation for 2-4 h at 37° C. in the dark. The medium was then discarded and the formazan precipitate was solubilized by addition of 20% SDS (Sigma; L-5750) in 0.02N HCl (Panreac; 131020.1611) for 12-16 h. The optical density was measured at 595 nm with the iMark Microplate Reader (BioRad, USA). Data was expressed as percent growth above the level in controls and the results in figures were plotted as means±SEM of each test point from 3 replicates.
(§2) Statistical analysis. The concentration of drug that provokes 50% reduction of cell viability (IC50) was determined by using non-linear regression analysis and data were fitted to a log concentration vs normalized response curve in GraphPad software v5 (San Diego, Calif.).

[3] = test system: HEL cells; assay: HEL-based MTT cell viability assay; design: species or system human; details: 48 h, read-out: Activity (IC50, reduction of cell viability)
Protocol: as §1, §2

[4] = test system: STAT5; assay: STAT5 phosphorylation western blot assay; type: cell-based, human; details: 10 microM, HEL or K562 cells (table does not say which)
Protocol: (§3) The Human Erythroleukemia cell line HEL and the human Chronic Myeloid Leukemia cell line K562 were cultured in RPM I 1640 medium containing 10% fetal bovine serum (FBS) and 50 U/ml penicillin/50 U/ml streptomycin at 37° C. in a 5% CO2 humidified atmosphere to a density of 300.000 viable cells/mL in presence of WP1066 (positive control of phosphorylation inhibition) (Verstovsek et al., 2008) or CM-363 at concentrations of 1, 5 and 10 μM. Cell culture reagents were all obtained from BioWhittaker® (Lonza, Verniers, Belgium). Cell growth and viability was determined by propidium iodide (fluorescent dye) exclusion method using the Accuchip 4× Counting Kit and the ADAM automatic cell counter (Digital-Bio, NanoEntek, Ic., Washington St, Mass., USA).As a control of unspecific phosphorylation, some cells in each experiment were exposed to vehicle (negative control of phosphorylation inhibition) (0.1% DMSO).
(§4) For total protein extraction, cells were scraped with RIPA 1× lysis buffer (25 mM Tris-HCl pH 7.6, 150 mM NaCl, 1% NP-40, 1% sodium deoxycholate, 0.1% SDS, no. 89900, Thermo Scientific, Rockford, Ill., USA) supplemented with 1× protease and 1× phosphatase inhibitor cocktails (100× Halt™ Protease Inhibitor Cocktail, no. 87786 and 100× Halt Phosphatase Inhibitor Cocktail, no. 78420, both from Thermo Scientific, Rockford, Ill., USA). An aliquot of each extract was preserved for protein quantification by bicinchoninic acid assay (Pierce® BCA Protein Assay Kit, no. 23225, Thermo Scientific, Rockford, Ill., USA).
(§5) Proteins were solubilized in sample buffer containing 0.0625 M Tris-HCl, pH 6.8, 2.3% (wt/vol) SDS, 10% (vol/vol) glycerol, 5% (vol/vol) f3-mercaptoethanol, and 0.001% (wt/vol) bromophenol blue and boiled at 95° C. for 5 min. Equal amounts (50 μg) of each sample were electrophoresed on 8-10% sodium dodecyl sulfate-polyacrylamide gel electrophoresis (SDS-PAGE) and transferred to nitrocellulose membranes (iBlot® Gel Transfer Stacks, Nitrocellulose, no. IB4010-02, Invitrogen, Barcelona, Spain) as described previously (Fernandez, L, et al., Endocrinology, 13, 1815-1824, 1998; B. Guerra et al., J. Neurochem, 91, 99-109, 2004; B. Guerra et al., J. Appl. Physiol., 102, 1786-1792, 2007; B. Guerra et al., J. Appl. Physiol., 111, 715-725, 2011). The nitrocellulose membranes were then removed from the iBlot® Dry GelTransfer Device (no. IB1001EU, Invitrogen, Barcelona, Spain) and placed in a Ponceau S staining solution (0.5% Ponceau S and 1% glacial acetic acid in water) to verify equal loading of protein in the control and treated samples. After the membranes were stained for 5 min, they were rinsed for 2 min and examined. Equal loading of protein was verified, and the membranes were rinsed for an additional 10 min and immunoscreened. Membranes were blocked with 5% blotting grade blocker nonfat dry milk in Tris Buffered Saline with 0.05% Tween 20 (TBST; blotto-blocking buffer) for at least […]) at room temperature. They were washed thrice in TBS with 0.1% Tween 20 (TBST-0.1). Next, the membranes were incubated over night at 4° C. with the appropriate anti-phospho-antibodies (described below) all diluted (1:1000) in 1% bovine serum albumin (BSA)-1% blotto in TBST (BSA-blotto blocking buffer). […] Membranes were stripped of bound antibodies by incubation in stripping buffer (Restore™ Western Blot Stripping Buffer, no. 21059, Thermo Scientific, Rockford, Ill., USA) at room temperature for 30 min with agitation. Membranes were washed for 3×10 min in TBST-0.1, blocked with blotto-blocking buffer for at least 1 h and re-probed with the corresponding anti-total kinase antibodies (described below) all diluted (1:1000) in blotto-blocking buffer. […]

[5] = test system: JAK2; assay: JAK2 phosphorylation western blot assay; type: cell-based, human; details: 10 microM, HEL or K562 cells (table does not say which)
Protocol: as §3, §4, §5

[6] = test system: K562 cells; details: cited from earlier work
[7] = test system: STAT5; details: K562 cells, 30-100 μM; cited from earlier work

For `O=C1CCCC2=C1C(c1ccc(Cl)cc1)C1=C(N2)C(=O)c2ccccc2C1=O` (stereo not shown) [Compound 1, 12-(4-chlorophenyl)-3,4-dihydrobenzo[b]acridine-1,6,11(2H,5H,12H)-trione], the IC50 ([1]; Homo sapiens) was less than 5 µM, the IC50 ([2]; Homo sapiens) was less than 10000 nM and the IC50 ([3]; Homo sapiens) was less than 3000 nM.

With `N#Cc1ccc(C2C3=C(CCCC3=O)NC3=C2C(=O)c2ccccc2C3=O)cc1` (stereo not shown) [Compound 2, 4-(1,6,11-trioxo-1,2,3,4,5,6,11,12-octahydrobenzo[b]acridin-12-yl)benzonitrile] the IC50 ([1]; Homo sapiens) was less than 1 µM, the IC50 ([2]; Homo sapiens) was less than 1000 nM and the IC50 ([3]; Homo sapiens) was less than 3000 nM.

In the case of `CC1(C)CC(=O)C2=C(C1)OC1=C(C(=O)c3ccccc3C1=O)C2c1ccc(C#N)cc1` (stereo not shown) [Compound 3, 4-(3,3-dimethyl-1,6,11-trioxo-2,3,4,6,11,12-hexahydro-1H-benzo[b]xanthen-12-yl)benzonitrile], the IC50 ([1]; Homo sapiens) is reported as less than 1 µM, the “Activity (inhibition of STAT5 phosphorylation)” value [4] is reported as “+++ (+++represents an inhibition at 10 microM > 75%)” and the “Activity (inhibition of JAK2 phosphorylation)” value [5] is reported as “++ (++represents an inhibition at 10 microM > 50%)”. The IC50 ([2]; Homo sapiens) was less than 1000 nM and the IC50 ([3]; Homo sapiens) was less than 1000 nM.

In the case of `CC1(C)CC(=O)C2=C(C1)NC1=C(C(=O)c3ccncc3C1=O)C2c1ccccc1` (stereo not shown) [Compound 13], the IC50 [1] is reported as less than 5 µM, the “Activity (inhibition of STAT5 phosphorylation)” value [4] is reported as “+++ (+++represents an inhibition at 10 microM > 75%)” and the “Activity (inhibition of JAK2 phosphorylation)” value [5] is reported as “++ (++represents an inhibition at 10 microM > 50%)”. It also gave an IC50 [2] of less than 3000 nM and an IC50 [3] of less than 3000 nM.

For `CC1(C)CC(=O)C2=C(C1)OC1=C(C(=O)c3ccccc3C1=O)C2c1ccc2c(c1)OCO2` (stereo not shown) [Compound 16, 12-(benzo[d][1,3]dioxol-5-yl)-3,3-dimethyl-3,4-dihydro-1H-benzo[b]xanthene-1,6,11(2H,12H)-trione], the IC50 ([1]; Homo sapiens) was less than 5 µM, the IC50 ([2]; Homo sapiens) was less than 3000 nM and the IC50 ([3]; Homo sapiens) was less than 3000 nM.

With `O=C1CCCC2=C1C(c1ccc3c(c1)OCO3)C1=C(N2)C(=O)c2ccccc2C1=O` (stereo not shown) [Compound 18] the “Activity (inhibition of STAT5 phosphorylation)” value [4] was “+ (+represents an inhibition at 10 microM > 50%)”, the “Activity (inhibition of JAK2 phosphorylation)” value [5] was “++ (++represents an inhibition at 10 microM > 50%)” and the IC50 [2] was less than 10000 nM.

With `O=C1CCCC2=C1C(c1ccccc1Cl)C1=C(N2)C(=O)c2ccccc2C1=O` (stereo not shown) [Compound 22] the IC50 [1] was less than 5 µM, the “Activity (inhibition of STAT5 phosphorylation)” value [4] was “+++ (+++represents an inhibition at 10 microM > 75%)” and the “Activity (inhibition of JAK2 phosphorylation)” value [5] was “++ (++represents an inhibition at 10 microM > 50%)”. The IC50 [3] was less than 3000 nM.

In the case of `O=C1CCCC2=C1C(c1ccoc1)C1=C(N2)C(=O)c2ccccc2C1=O` (stereo not shown) [Compound 24], the IC50 [1] is reported as less than 5 µM, the “Activity (inhibition of STAT5 phosphorylation)” value [4] is reported as “+ (+represents an inhibition at 10 microM > 50%)” and the “Activity (inhibition of JAK2 phosphorylation)” value [5] is reported as “+++ (+++represents an inhibition at 10 microM > 75%)”. For the same compound, the IC50 [3] was less than 3000 nM.

In the case of `O=C1CCCC2=C1C(c1ccc(Br)cc1)C1=C(N2)C(=O)c2ccccc2C1=O` (stereo not shown) [Compound 26, 12-(4-bromophenyl)-3,4-dihydrobenzo[b]acridine 1,6,11(2H,5H,12H)-trione], the IC50 ([1]; Homo sapiens) is reported as less than 5 µM, the “Activity (inhibition of STAT5 phosphorylation)” value [4] is reported as “+ (+represents an inhibition at 10 microM > 50%)” and the IC50 ([2]; Homo sapiens) is reported as less than 1000 nM. It also gave an IC50 ([3]; Homo sapiens) of less than 10000 nM.

With `O=C1CCCC2=C1C(c1cccc(Br)c1)C1=C(N2)C(=O)c2ccccc2C1=O` (stereo not shown) [Compound 27] the IC50 [1] was less than 5 µM, the “Activity (inhibition of JAK2 phosphorylation)” value [5] was “+ (+represents an inhibition at 10 microM > 30%)” and the IC50 [2] was less than 10000 nM. The IC50 [3] was less than 3000 nM.

For `COc1cc2ncnc(Nc3ccc(O)cc3)c2cc1OC` [WHI-P131], the “cell cycle phases in flow cytometry experiments” value [6] is listed as “dose-dependent decrease in G1 and S phases and an increase in G2/M phases” and the “tyrosine phosphorylation of STAT5” value [7] is listed as “caused a reduction in tyrosine phosphorylation of STAT5”.
